Experimental data published in patent publication US7081460B2, “Quinazoline and quinazoline-like compounds for the treatment of integrin-mediated disorders” (Ortho-McNeil Pharmaceutical, Inc., priority 2001, dated 2006).

Key:
[1] = target: GPIIb/IIIa (Homo sapiens, UniProt P05106+P08514); experiment: In vitro solid phase purified glycoprotein IIb/IIIa binding assay (biotinylated fibrinogen); conditions: RGD-affinity purified GPIIb/IIIa, biotinylated fibrinogen; read-out: GPIIb/IIIa Binding IC50
Protocol: (§1) In vitro Solid Phase Purified αvβ3 Binding Assay The vitronectin/αvβ3 binding assay methods were derived from Mehta et al. (Biochem J. 1998, 330, 861). Human αvβ3 (Chemicon International Inc., Temecula, Calif.), at a concentration of 1 μg/ml dissolved in Tris buffer (20 mM Tris, 1 mM CaCl2, 1 mM MgCl2, 10 μM MnCl2, 150 mM NaCl), was immobilized on Immulon 96 well plates (Dynex Technologies, Chantilly, Va.) overnight at 4° C. Plates were washed and treated with blocking buffer (3% BSA in Tris buffer) for 2 h at 37 C. Plates were then rinsed 2 times in Tris buffer containing 0.3% BSA and 0.2% Tween20 (polyoxyethylenesorbitan monolaurate). Five minutes prior to the addition of 5 nM vitronectin (Sigma, St. Louis, Mo.), compounds of the invention were added to wells in duplicate. Each plate included c-RGDfV as an internal control. Following a 3 hour incubation at 37° C., plates were washed 5 times in assay buffer. An anti-human vitronectin IgG rabbit polyclonal antibody (Calbiochem, San Diego, Calif.) was added (1:2000) and plates were incubated for 1 hour at room temperature. VectaStain ABC peroxidase kit reagents (Vector Laboratories, Burlingame, Calif.) employing a biotin labeled anti-rabbit IgG, were utilized for detection of bound antibody. Plates were read at 490 nm on a Molecular Devices (Sunnyvale, Calif.) microplate reader. […] The plate was covered and incubated overnight at 4° C. The GPIIb/IIIa solution was discarded and 150 μl of 5% BSA was added and incubated at RT for 1–3 h. The plate was washed extensively with modified Tyrodes buffer. Biotinylated fibrinogen (25 μl/well) at 2× final concentration was added to the wells that contain the test compounds (25 μl/well). The plate was covered and incubated at RT for 2–4 h. Twenty minutes prior to incubation completion, one drop of Reagent A (VectaStain ABC Horse Radish Peroxidase kit, Vector Laboratories, Inc.) and one drop Reagent B were added with mixing to 5 mL modified Tyrodes buffer mix and let stand. The ligand solution was discarded and the plate washed (5×200 μl/well) with modified Tyrodes buffer. Vecta Stain HRP-Biotin-Avidin reagent (50 μl/well, as prepared above) was added and incubated at RT for 15 min. The Vecta Stain solution was discarded and the wells washed (5×200 μl/well) with modified Tyrodes buffer. Developing buffer (10 mL of 50 mM citrate/phosphate buffer @ pH 5.3, 6 mg o-phenylenediamine, 6 μl 30% H2O2; 50 μl/well) was added and incubated at rt for 3–5 min, and then 2 N H2SO4 (50 μl/well) was added. The absorbance was read at 490 nm.

[2] = target: T1, Human αvβ3 (Homo sapiens, UniProt P05106+P06756); experiment: In vitro solid phase purified αvβ3 binding assay (vitronectin/αvβ3); conditions: isolated human αvβ3, 5 nM vitronectin; read-out: αvβ3 Binding IC50
T1 construct: purchased Chemicon International Inc., Temecula, Calif
Protocol: as §1

T1 sequence (P06756 31-889 limits assumed): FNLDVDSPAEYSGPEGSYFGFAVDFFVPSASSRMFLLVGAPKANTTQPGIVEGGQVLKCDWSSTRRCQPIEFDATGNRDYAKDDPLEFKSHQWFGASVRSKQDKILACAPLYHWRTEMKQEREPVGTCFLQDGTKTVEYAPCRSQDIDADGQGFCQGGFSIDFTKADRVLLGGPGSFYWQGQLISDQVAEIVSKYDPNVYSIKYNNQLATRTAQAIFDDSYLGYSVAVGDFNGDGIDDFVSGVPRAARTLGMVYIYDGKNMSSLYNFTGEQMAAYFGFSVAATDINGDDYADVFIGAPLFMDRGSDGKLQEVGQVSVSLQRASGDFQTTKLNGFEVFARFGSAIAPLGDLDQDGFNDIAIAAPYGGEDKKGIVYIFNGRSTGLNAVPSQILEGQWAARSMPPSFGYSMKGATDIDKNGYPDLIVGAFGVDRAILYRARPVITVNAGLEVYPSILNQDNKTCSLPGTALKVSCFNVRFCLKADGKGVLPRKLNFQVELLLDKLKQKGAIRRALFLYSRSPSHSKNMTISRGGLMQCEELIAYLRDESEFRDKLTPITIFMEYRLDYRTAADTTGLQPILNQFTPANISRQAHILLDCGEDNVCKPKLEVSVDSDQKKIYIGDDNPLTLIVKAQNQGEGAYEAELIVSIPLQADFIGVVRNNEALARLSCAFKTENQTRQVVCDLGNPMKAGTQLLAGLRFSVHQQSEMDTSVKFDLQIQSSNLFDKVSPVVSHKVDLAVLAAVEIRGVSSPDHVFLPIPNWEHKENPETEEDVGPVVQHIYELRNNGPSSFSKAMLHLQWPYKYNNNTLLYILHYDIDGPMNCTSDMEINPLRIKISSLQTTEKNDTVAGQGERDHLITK
T1 sequence (P06756 891-1048 partner limits assumed): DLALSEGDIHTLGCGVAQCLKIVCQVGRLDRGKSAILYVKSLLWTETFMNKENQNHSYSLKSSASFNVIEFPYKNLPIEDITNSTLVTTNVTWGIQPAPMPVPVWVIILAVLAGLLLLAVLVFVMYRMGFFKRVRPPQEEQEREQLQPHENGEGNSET
T1 sequence (P05106 27-788): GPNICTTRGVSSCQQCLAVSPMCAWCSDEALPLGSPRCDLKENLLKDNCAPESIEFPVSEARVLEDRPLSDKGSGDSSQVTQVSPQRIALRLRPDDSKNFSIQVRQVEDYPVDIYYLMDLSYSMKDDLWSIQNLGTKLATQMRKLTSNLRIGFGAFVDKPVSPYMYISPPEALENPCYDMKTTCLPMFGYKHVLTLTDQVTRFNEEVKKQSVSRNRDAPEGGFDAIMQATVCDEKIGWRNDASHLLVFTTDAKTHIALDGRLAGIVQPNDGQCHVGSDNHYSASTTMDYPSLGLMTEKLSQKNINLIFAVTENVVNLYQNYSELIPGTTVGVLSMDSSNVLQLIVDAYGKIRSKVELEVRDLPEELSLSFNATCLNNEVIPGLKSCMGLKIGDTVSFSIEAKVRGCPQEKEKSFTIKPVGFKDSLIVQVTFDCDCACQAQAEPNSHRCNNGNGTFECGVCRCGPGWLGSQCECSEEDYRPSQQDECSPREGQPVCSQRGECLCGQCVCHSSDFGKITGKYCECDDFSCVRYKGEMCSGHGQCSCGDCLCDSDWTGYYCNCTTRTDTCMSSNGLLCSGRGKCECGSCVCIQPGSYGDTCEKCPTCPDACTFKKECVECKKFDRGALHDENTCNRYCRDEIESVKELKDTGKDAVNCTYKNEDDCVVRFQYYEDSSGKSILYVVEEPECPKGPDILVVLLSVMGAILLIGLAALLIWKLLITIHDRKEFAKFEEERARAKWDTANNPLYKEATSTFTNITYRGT
Sequence of GPIIb/IIIa (P08514 32-887 limits assumed): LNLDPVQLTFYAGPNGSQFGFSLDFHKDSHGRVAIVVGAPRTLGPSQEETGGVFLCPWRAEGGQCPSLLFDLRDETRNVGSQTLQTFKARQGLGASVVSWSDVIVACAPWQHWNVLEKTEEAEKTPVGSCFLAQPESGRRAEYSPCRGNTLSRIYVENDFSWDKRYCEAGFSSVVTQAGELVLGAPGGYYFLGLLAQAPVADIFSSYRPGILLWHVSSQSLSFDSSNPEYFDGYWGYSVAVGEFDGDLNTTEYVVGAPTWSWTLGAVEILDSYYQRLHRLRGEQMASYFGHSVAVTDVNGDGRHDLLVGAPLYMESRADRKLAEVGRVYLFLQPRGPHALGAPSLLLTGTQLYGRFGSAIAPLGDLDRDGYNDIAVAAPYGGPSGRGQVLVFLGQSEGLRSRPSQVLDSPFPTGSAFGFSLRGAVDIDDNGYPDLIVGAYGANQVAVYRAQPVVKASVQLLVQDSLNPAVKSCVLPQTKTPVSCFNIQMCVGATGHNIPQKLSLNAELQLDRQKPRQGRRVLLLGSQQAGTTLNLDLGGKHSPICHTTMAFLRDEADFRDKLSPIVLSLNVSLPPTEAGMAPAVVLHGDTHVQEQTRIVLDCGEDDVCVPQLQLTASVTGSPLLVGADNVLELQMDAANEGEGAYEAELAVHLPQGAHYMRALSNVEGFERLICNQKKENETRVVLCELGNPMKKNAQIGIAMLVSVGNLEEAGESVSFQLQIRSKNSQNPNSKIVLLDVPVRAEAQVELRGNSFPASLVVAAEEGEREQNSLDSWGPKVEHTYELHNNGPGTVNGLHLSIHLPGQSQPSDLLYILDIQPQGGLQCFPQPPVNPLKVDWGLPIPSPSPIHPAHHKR
Sequence of GPIIb/IIIa (P08514 891-1039 partner limits assumed): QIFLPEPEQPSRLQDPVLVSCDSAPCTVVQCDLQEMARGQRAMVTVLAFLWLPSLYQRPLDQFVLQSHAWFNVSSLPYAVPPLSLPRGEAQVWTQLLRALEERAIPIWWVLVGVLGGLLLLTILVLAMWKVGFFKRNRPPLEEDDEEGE
Sequence of GPIIb/IIIa (P05106 27-788): as the sequence (P05106 27-788) above

Row | Structure (SMILES) | IC50 [1] [nM] | IC50 [2] [nM]
1 | COc1cccc([C@@H](CC(=O)O)c2nc3ccc(/C=C/CNc4ccccn4)cc3c(=O)[nH]2)c1 [Compound 17, (βR)-3,4-dihydro-β-(3-methoxyphenyl)-4-oxo-6-[(1E)-3-(2-pyridinylamino)-1-propenyl]-2-quinazolinepropanoic Acid] | 18000 | > 50000
2 | COc1cccc([C@@H](CC(=O)O)c2nc3ccc(/C=C/CNc4ccccn4)cc3c(=O)n2C)c1 [Compound 18, (βR)-3,4-dihydro-β-(3-methoxyphenyl)-3-methyl-4-oxo-6-[(1E)-3-(2-pyridinylamino)-1-propenyl]-2-quinazolinepropanoic Acid] | > 50000 | 18000
3 | NC/C=C/c1ccc2nc(C[C@H](NC(=O)OCc3ccccc3)C(=O)O)[nH]c(=O)c2c1 [Compound 19, 6-[(1E)-3-amino-1-propenyl]-(αS)-3,4-dihydro-4-oxo-α-[[(phenylmethoxy)carbonyl]amino]-2-quinazolinepropanoic acid] | 450 | > 5000
4 | O=C(N[C@@H](Cc1nc2ccc(C#CCNC3=NCCN3)cc2c(=O)[nH]1)C(=O)O)OCc1ccccc1 [Compound 20, 6-[3-[(4,5-dihydro-1H-imidazol-2-yl)amino]-1-propynyl]-(αS)-3,4-dihydro-4-oxo-α-[[(phenylmethoxy)carbonyl]amino]-2-quinazolinepropanoic acid] | 660 | > 5000
5 | O=C(O)[C@H](Cc1nc2ccc(/C=C/CNC3=NCCN3)cc2c(=O)[nH]1)NS(=O)(=O)c1c(Cl)cc(Cl)cc1Cl [Compound 21, 6-[(1E)-3-[(4,5-dihydro-1H-imidazol-2-yl)amino]-1-propenyl]-(αS)-3,4-dihydro-4-oxo-α-[[(2,4,6-trichlorophenyl)sulfonyl]amino]-2-quinazolinepropanoic acid] | 1600 | > 50
6 | CN(C)c1cccc2c(S(=O)(=O)N[C@@H](Cc3nc4ccc(/C=C/CNC5=NCCN5)cc4c(=O)[nH]3)C(=O)O)cccc12 [Compound 22, 6-[(1E)-3-[(4,5-dihydro-1H-imidazol-2-yl)amino]-1-propenyl]-α-[[[5-(dimethylamino)-1-naphthalenyl]sulfonyl]amino]-(αS)-3,4-dihydro-4-oxo-2-quinazolinepropanoic acid] | 1200 | > 500
7 | Cc1c(C)c(C)c(S(=O)(=O)N[C@@H](Cc2nc3ccc(/C=C/CN4CCCC4=N)cc3c(=O)[nH]2)C(=O)O)c(C)c1C [Compound 27, (αS)-3,4-dihydro-6-[(1E)-3-(2-imino-1-pyrrolidinyl)-1-propenyl]-4-oxo-α-[[(2,3,4,5,6-pentamethylphenyl)sulfonyl]amino]-2-quinazolinepropanoic acid] | 19 | 120
8 | Cc1c(C)c(C)c(S(=O)(=O)N[C@@H](Cc2nc3ccc(/C=C/CNc4nccn4C)cc3c(=O)[nH]2)C(=O)O)c(C)c1C [Compound 30, (αS)-3,4-dihydro-6-[(1E)-3-[(1-methyl-1H-imidazol-2-yl)amino]-1-propenyl]-4-oxo-α-[[(2,3,4,5,6-pentamethylphenyl)sulfonyl]amino]-2-quinazolinepropanoic acid] | 83 | 200
9 | COc1ccc(OC)c(S(=O)(=O)N[C@@H](Cc2nc3ccc(/C=C/CNc4ccccn4)cc3c(=O)[nH]2)C(=O)O)c1 [Compound 32, α-[[(2,5-dimethoxyphenyl)sulfonyl]amino]-(αS)-3,4-dihydro-4-oxo-6-[(1E)-3-(2-pyridinylamino)-1-propenyl]-2-quinazolinepropanoic acid] | 3900 | 21
10 | Cc1nn(C)c(Cl)c1S(=O)(=O)N[C@@H](Cc1nc2ccc(/C=C/CNc3ccccn3)cc2c(=O)[nH]1)C(=O)O [Compound 36, α-[[(5-chloro-1,3-dimethyl-1H-pyrazol-4-yl)sulfonyl]amino]-(αS)-3,4-dihydro-4-oxo-6-[(1E)-3-(2-pyridinylamino)-1-propenyl]-2-quinazolinepropanoic acid] | 2700 | 25
11 | Cc1noc(C)c1S(=O)(=O)N[C@@H](Cc1nc2ccc(/C=C/CNc3ccccn3)cc2c(=O)[nH]1)C(=O)O [Compound 37, α-[[(3,5-dimethyl-4-isoxazolyl)sulfonyl]amino]-(αS)-3,4-dihydro-4-oxo-6-[(1E)-3-(2-pyridinylamino)-1-propenyl]-2-quinazolinepropanoic acid] | 700 | 54

The next lines start with the values.

Row | IC50 [1] [nM] | IC50 [2] [nM] | Structure (SMILES)
12 | 1400 | 23 | O=C(O)[C@H](Cc1nc2ccc(/C=C/CNc3ccccn3)cc2c(=O)[nH]1)NS(=O)(=O)c1ccc2ccccc2c1 [Compound 24, (αS)-3,4-dihydro-α-[(2-naphthalenylsulfonyl)amino]-4-oxo-6-[(1E)-3-(2-pyridinylamino)-1-propenyl]-2-quinazolinepropanoic acid]
13 | 9600 | 72 | O=C(O)[C@H](Cc1nc2ccc(/C=C/CNc3ccccn3)cc2c(=O)[nH]1)NS(=O)(=O)c1ccc(C(F)(F)F)cc1 [Compound 25, (αS)-3,4-dihydro-4-oxo-6-[(1E)-3-(2-pyridinylamino)-1-propenyl]-α-[[[4-(trifluoromethyl)phenyl]sulfonyl]amino]-2-quinazolinepropanoic acid]
14 | 1300 | 15 | COc1ccc(S(=O)(=O)N[C@@H](Cc2nc3ccc(/C=C/CNc4ccccn4)cc3c(=O)[nH]2)C(=O)O)cc1 [Compound 26, (αS)-3,4-dihydro-α-[[(4-methoxyphenyl)sulfonyl]amino]-4-oxo-6-[(1E)-3-(2-pyridinylamino)-1-propenyl]-2-quinazolinepropanoic acid]
15 | 2200 | > 300 | O=C(O)[C@H](Cc1nc2ccc(/C=C/CNc3ccccn3)cc2c(=O)[nH]1)NS(=O)(=O)c1ccc(S(=O)(=O)c2ccccc2)s1 [Compound 28, (αS)-3,4-dihydro-4-oxo-α-[[[5-(phenylsulfonyl)-2-thienyl]sulfonyl]amino]-6-[(1E)-3-(2-pyridinylamino)-1-propenyl]-2-quinazolinepropanoic acid]
16 | 240 | 38 | Cc1cccc(Cl)c1S(=O)(=O)N[C@@H](Cc1nc2ccc(/C=C/CNc3ccccn3)cc2c(=O)[nH]1)C(=O)O [Compound 29, α-[[(2-chloro-6-methylphenyl)sulfonyl]amino]-(αS)-3,4-dihydro-4-oxo-6-[(1E)-3-(2-pyridinylamino)-1-propenyl]-2-quinazolinepropanoic acid]
17 | 1800 | 70 | O=C(O)[C@H](Cc1nc2ccc(/C=C/CNc3ccccn3)cc2c(=O)[nH]1)NS(=O)(=O)c1ccc(-c2ccon2)s1 [Compound 31, (αS)-3,4-dihydro-α-[[[5-(3-isoxazolyl)-2-thienyl]sulfonyl]amino]-4-oxo-6-[(1E)-3-(2-pyridinylamino)-1-propenyl]-2-quinazolinepropanoic acid]
18 | 1100 | 13 | COc1ccc(S(=O)(=O)N[C@@H](Cc2nc3ccc(/C=C/CNc4ccccn4)cc3c(=O)[nH]2)C(=O)O)cc1OC [Compound 33, α-[[(3,4-dimethoxyphenyl)sulfonyl]amino]-(αS)-3,4-dihydro-4-oxo-6-[(1E)-3-(2-pyridinylamino)-1-propenyl]-2-quinazolinepropanoic acid]
19 | 1600 | 83 | O=C(O)[C@H](Cc1nc2ccc(/C=C/CNc3ccccn3)cc2c(=O)[nH]1)NS(=O)(=O)c1cccs1 [Compound 34, (αS)-3,4-dihydro-4-oxo-6-[(1E)-3-(2-pyridinylamino)-1-propenyl]-α-[(2-thienylsulfonyl)amino]-2-quinazolinepropanoic acid]
20 | 4800 | 59 | O=C(O)[C@H](Cc1nc2ccc(/C=C/CNc3ccccn3)cc2c(=O)[nH]1)NS(=O)(=O)c1ccc(OC(F)(F)F)cc1 [Compound 35, (αS)-3,4-dihydro-4-oxo-6-[(1E)-3-(2-pyridinylamino)-1-propenyl]-α-[[[4-(trifluoromethoxy)phenyl]sulfonyl]amino]-2-quinazolinepropanoic acid]
